Consider 23 compounds from US9175357B2, “Fragment ligated inhibitors selective for the polo box domain of PLK1” (UNIVERSITY OF SOUTH CAROLINA, priority 2011, dated 2015).

Read-outs that look alike come from different tables or passages of the source. Numbered stars: 1 amine (or outer) side, 2 acyl side, 3 side chain; on linkers, the order of the positions; unused ones are H or OH. Square brackets hold non-standard residues; d marks the D form. Ends that are not written are not given here. Peptide text beside a SMILES is read from it. * marks the point of attachment. Quinoline(6-carbonyl) = O=C(c1ccc2ncccc2c1)*; X11 = O=C(c1cn(S(=O)(=O)c2ccccc2)c2ccccc12)*; X6 = Cc1c(C(=O)*)cc(-c2ccccc2)n1-c1ccccc1; NMe4Abz = CN(c1ccc(C(=O)[*:2])cc1)[*:1]; X3 = Cc1ccc(-c2cn(CC(=O)*)c(=O)cn2)cc1; pT = C[C@@H](OP(=O)(O)O)[C@H](N)C(=O)O; X14 = COc1cccc(-c2cc(C(=O)*)[nH]n2)c1; Benzoyl(4-OMe) = COc1ccc(C(=O)*)cc1; X7 = Cc1ccc2c(c1)N(CC(=O)*)C(=O)CO2; Benzoyl(4-Et) = CCc1ccc(C(=O)*)cc1; 1Naphthoyl = O=C(c1cccc2ccccc12)*; X2 = Cc1nc(-c2ccc(C(=O)*)cc2)no1; X10 = COc1cc(C(=O)*)cc2c1OCCO2; X15 = COc1ccc(C(=O)*)c2ccccc12; X8 = Cc1cc2c(SCC(=O)*)ncnc2s1; X1 = CCCCc1ccc(C(=O)*)cc1; X17 = CCCc1ccc(C(=O)*)cc1; X5 = CCCNc1ccc(C(=O)*)cc1; X9 = CCOc1ccc(C(=O)*)cc1; X4 = CSc1ccc(C(=O)*)cc1

Experiment [1] concerns the target PLK1 PBD protein (residues 367-603) (Homo sapiens (Human), UniProt P53350). The experiment in a line: Competitive fluorescence polarization (FP) binding assay, PLK1 PBD.
Another experiment concerns the target PLK1 (Homo sapiens (Human), UniProt P53350). Conditions: previously identified minimized PBD binding sequences; cited from earlier work.
The mark [2] stands for this setting: Table 2, FP assay, read-out: IC50.

Sequence of PLK1 PBD protein (residues 367-603) (P53350 367-603): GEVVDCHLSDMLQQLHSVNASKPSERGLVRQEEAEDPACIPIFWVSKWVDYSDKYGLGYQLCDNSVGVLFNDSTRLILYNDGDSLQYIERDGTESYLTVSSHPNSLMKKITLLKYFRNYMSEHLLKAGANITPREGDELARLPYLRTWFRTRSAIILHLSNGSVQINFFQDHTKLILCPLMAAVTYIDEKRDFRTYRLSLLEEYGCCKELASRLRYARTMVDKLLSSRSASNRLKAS
Sequence of PLK1 (P53350 326-603): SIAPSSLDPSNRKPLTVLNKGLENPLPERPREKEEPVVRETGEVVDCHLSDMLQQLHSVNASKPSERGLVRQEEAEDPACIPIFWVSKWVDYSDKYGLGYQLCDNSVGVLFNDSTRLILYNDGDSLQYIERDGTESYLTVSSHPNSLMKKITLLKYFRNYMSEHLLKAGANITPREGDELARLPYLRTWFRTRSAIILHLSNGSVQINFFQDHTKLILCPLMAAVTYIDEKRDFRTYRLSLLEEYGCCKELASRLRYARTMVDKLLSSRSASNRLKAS

As to `CCCCc1ccc(C(=O)N[C@@H](CO)C(=O)N[C@H](C(=O)N2CCC[C@H]2C(=O)N[C@@H](CC(N)=O)C(=O)NCC(=O)N[C@@H](CC(C)C)C(=O)O)[C@@H](C)OP(=O)(O)O)cc1` [compound 5827, 3G2-S[pT]PNGL (4-butylbenzoic acid)] (X1-S[pT]PNGL-OH), the IC50 in experiment [1] (setting [2]) was found to be 8.6 µM.

In turn, `COc1cccc(-c2cc(C(=O)N[C@@H](CO)C(=O)N[C@H](C(=O)N3CCC[C@H]3C(=O)N[C@@H](CC(N)=O)C(=O)NCC(=O)N[C@@H](CC(C)C)C(=O)O)[C@@H](C)OP(=O)(O)O)[nH]n2)c1` [compound 5593] (X14-S[pT]PNGL-OH) came in with an IC50 in experiment [1] of 380 µM.

In experiment [1], `Cc1nc(-c2ccc(C(=O)N[C@@H](CO)C(=O)N[C@H](C(=O)N3CCC[C@H]3C(=O)N[C@@H](CC(N)=O)C(=O)NCC(=O)N[C@@H](CC(C)C)C(=O)O)[C@@H](C)OP(=O)(O)O)cc2)no1` [compound 5598, 1G2-S[pT]PNGL] (X2-S[pT]PNGL-OH) had an IC50 of 320 µM.

Consider `CCCNc1ccc(C(=O)N[C@@H](CO)C(=O)N[C@H](C(=O)N2CCC[C@H]2C(=O)N[C@@H](CC(N)=O)C(=O)NCC(=O)N[C@@H](CC(C)C)C(=O)O)[C@@H](C)OP(=O)(O)O)cc1` [compound 5830] (X5-S[pT]PNGL-OH), for which the IC50 in experiment [1] (setting [2]) came out at 16.5 µM.

For `CCCc1ccc(C(=O)N[C@@H](CO)C(=O)N[C@H](C(=O)N2CCC[C@H]2C(=O)N[C@@H](CC(N)=O)C(=O)NCC(=O)N[C@@H](CC(C)C)C(=O)O)[C@@H](C)OP(=O)(O)O)cc1` [compound 5826] (X17-S[pT]PNGL-OH), the IC50 in experiment [1] (setting [2]) stood at 10.8 µM.

As to `CC[C@H](C)[C@H](NC(=O)[C@H](C)NC(=O)[C@@H](NC(=O)[C@H](CO)NC(=O)[C@H](Cc1c[nH]cn1)NC(=O)[C@H](CC(C)C)NC(C)=O)[C@@H](C)OP(=O)(O)O)C(=O)O` [Sample No. 5781, Ac-LHS[pT]AI, reference compound] (Ac-LHS[pT]AI-OH), the IC50 in experiment [1] (Table 1, read-out: PLK1 PBD IC50) came out at 5 µM.

With `CC[C@H](C)[C@H](NC(=O)[C@H](C)NC(=O)[C@@H](NC(=O)[C@H](CO)NC(=O)[C@H](Cc1c[nH]cn1)NC(=O)[C@@H](N)CC(C)C)[C@@H](C)OP(=O)(O)O)C(=O)O` [compound 5649, LHS[pT]AI] (H-LHS[pT]AI-OH), at PLK1, the Kd is 0.25 µM.

In experiment [1], `Cc1cc2c(SCC(=O)N[C@@H](CO)C(=O)N[C@H](C(=O)N3CCC[C@H]3C(=O)N[C@@H](CC(N)=O)C(=O)NCC(=O)N[C@@H](CC(C)C)C(=O)O)[C@@H](C)OP(=O)(O)O)ncnc2s1` [compound 5595] (X8-S[pT]PNGL-OH) registered an IC50 of 475 µM.

Consider `CNc1ccc(C(=O)N[C@@H](CO)C(=O)N[C@H](C(=O)N2CCC[C@H]2C(=O)N[C@@H](CC(N)=O)C(=O)NCC(=O)N[C@@H](CC(C)C)C(=O)O)[C@@H](C)OP(=O)(O)O)cc1` [compound 5792] (NMe4Abz-S[pT]PNGL-OH), for which the half-inhibitory concentration (IC50) in experiment [1] (setting [2]) was determined as 31.2 µM.

Consider `COc1ccc(C(=O)N[C@@H](CO)C(=O)N[C@H](C(=O)N2CCC[C@H]2C(=O)N[C@@H](CC(N)=O)C(=O)NCC(=O)N[C@@H](CC(C)C)C(=O)O)[C@@H](C)OP(=O)(O)O)c2ccccc12` [compound 5756, 2G1-S[pT]PNGL] (X15-S[pT]PNGL-OH), for which the IC50 in experiment [1] is 99 µM.

For the compound `COc1cc(C(=O)N[C@@H](CO)C(=O)N[C@H](C(=O)N2CCC[C@H]2C(=O)N[C@@H](CC(N)=O)C(=O)NCC(=O)N[C@@H](CC(C)C)C(=O)O)[C@@H](C)OP(=O)(O)O)cc2c1OCCO2` [compound 5604] (X10-S[pT]PNGL-OH), the IC50 in experiment [1] was 300 µM.

`CCc1ccc(C(=O)N[C@@H](CO)C(=O)N[C@H](C(=O)N2CCC[C@H]2C(=O)N[C@@H](CC(N)=O)C(=O)NCC(=O)N[C@@H](CC(C)C)C(=O)O)[C@@H](C)OP(=O)(O)O)cc1` [compound 5788, 3G1-S[pT]PNGL (4-ethylbenzoic acid)] ({Benzoyl(4-Et)}-S[pT]PNGL-OH): the 50% inhibitory concentration (IC50) in experiment [1] (setting [2]) is 16.5 µM.

As to `CC(C)C[C@H](NC(=O)CNC(=O)[C@H](CC(N)=O)NC(=O)[C@@H]1CCCN1C(=O)[C@@H](NC(=O)[C@H](CO)NC(=O)c1ccc2ncccc2c1)[C@@H](C)OP(=O)(O)O)C(=O)O` [compound 5601] ({Quinoline(6-carbonyl)}-S[pT]PNGL-OH), in experiment [1], the concentration for half-maximal inhibition (IC50) was found to be 400 µM.

On to `CC(C)C[C@H](NC(=O)CNC(=O)[C@H](CC(N)=O)NC(=O)[C@@H]1CCCN1C(=O)[C@@H](NC(=O)[C@@H](N)CO)[C@@H](C)OP(=O)(O)O)C(=O)O` [Sample No. 5714, S[pT]PNGL] (H-S[pT]PNGL-OH), for which the “PLK1 PBD IC50” value in experiment [1] (Table 1) is reported as “no detectable binding”.

In the case of `CC(C)C[C@H](NC(=O)CNC(=O)[C@H](CC(N)=O)NC(=O)[C@@H]1CCCN1C(=O)[C@@H](NC(=O)[C@H](CO)NC(=O)c1cccc2ccccc12)[C@@H](C)OP(=O)(O)O)C(=O)O` [compound 5753] (1Naphthoyl-S[pT]PNGL-OH), in experiment [1], the IC50 stood at 104 µM.

As for `Cc1c(C(=O)N[C@@H](CO)C(=O)N[C@H](C(=O)N2CCC[C@H]2C(=O)N[C@@H](CC(N)=O)C(=O)NCC(=O)N[C@@H](CC(C)C)C(=O)O)[C@@H](C)OP(=O)(O)O)cc(-c2ccccc2)n1-c1ccccc1` [compound 5599] (X6-S[pT]PNGL-OH), in experiment [1], the 50% inhibitory concentration (IC50) worked out at 600 µM.

For `CSc1ccc(C(=O)N[C@@H](CO)C(=O)N[C@H](C(=O)N2CCC[C@H]2C(=O)N[C@@H](CC(N)=O)C(=O)NCC(=O)N[C@@H](CC(C)C)C(=O)O)[C@@H](C)OP(=O)(O)O)cc1` [compound 5791] (X4-S[pT]PNGL-OH), the IC50 in experiment [1] (setting [2]) was found to be 18.5 µM.

In turn, `CC(C)C[C@H](NC(=O)CNC(=O)[C@H](CC(N)=O)NC(=O)[C@@H]1CCCN1C(=O)[C@@H](NC(=O)[C@H](CO)NC(=O)c1cn(S(=O)(=O)c2ccccc2)c2ccccc12)[C@@H](C)OP(=O)(O)O)C(=O)O` [compound 5591] (X11-S[pT]PNGL-OH) displayed an IC50 in experiment [1] of 375 µM.

In the case of Ac-PLHSEA [compound 5744, Ac-PLHSEA], the “PLK1 PBD IC50” value in experiment [1] (Table 1) is listed as “weakly but detectably bound”.

Consider `CCOc1ccc(C(=O)N[C@@H](CO)C(=O)N[C@H](C(=O)N2CCC[C@H]2C(=O)N[C@@H](CC(N)=O)C(=O)NCC(=O)N[C@@H](CC(C)C)C(=O)O)[C@@H](C)OP(=O)(O)O)cc1` [compound 5786] (X9-S[pT]PNGL-OH), for which the IC50 in experiment [1] (setting [2]) is 64.7 µM.

On to `Cc1ccc2c(c1)N(CC(=O)N[C@@H](CO)C(=O)N[C@H](C(=O)N1CCC[C@H]1C(=O)N[C@@H](CC(N)=O)C(=O)NCC(=O)N[C@@H](CC(C)C)C(=O)O)[C@@H](C)OP(=O)(O)O)C(=O)CO2` [compound 5594, 1G1-S[pT]PNGL] (X7-S[pT]PNGL-OH), for which the IC50 in experiment [1] turned out to be 350 µM.

On to `COc1ccc(C(=O)N[C@@H](CO)C(=O)N[C@H](C(=O)N2CCC[C@H]2C(=O)N[C@@H](CC(N)=O)C(=O)NCC(=O)N[C@@H](CC(C)C)C(=O)O)[C@@H](C)OP(=O)(O)O)cc1` [compound 5754] ({Benzoyl(4-OMe)}-S[pT]PNGL-OH), for which, in experiment [1] (setting [2]), the IC50 is 125 µM.

`Cc1ccc(-c2cn(CC(=O)N[C@@H](CO)C(=O)N[C@H](C(=O)N3CCC[C@H]3C(=O)N[C@@H](CC(N)=O)C(=O)NCC(=O)N[C@@H](CC(C)C)C(=O)O)[C@@H](C)OP(=O)(O)O)c(=O)cn2)cc1` [compound 5603, 1G3-S[pT]PNGL] (X3-S[pT]PNGL-OH) gave an IC50 in experiment [1] of 250 µM.
